Assay: xn = mol fraction of the nth substance listed
Conditions: 102 kPa, Liquid; for speed of sound: Frequency=3 MHz, Single path-length method; for mass density: Vibrating tube method; for viscosity: Concentric cylinders viscometry

CCCCCCCC1CCCCC1 [heptylcyclohexane] + CCCCCCCCCCCC
Conditions	mass density [kg/m3]	speed of sound [m/s]	viscosity [mPa·s]
288.15 K, x1 = 0.1002	758.6	1324.4	–
288.15 K, x1 = 0.201	764.82	1331.8	–
288.15 K, x1 = 0.3	771.01	1339.3	–
288.15 K, x1 = 0.3998	777.16	1346.8	–
288.15 K, x1 = 0.5002	783.44	1354.4	–
288.15 K, x1 = 0.5999	789.63	1362	–
288.15 K, x1 = 0.6998	795.81	1369.8	–
288.15 K, x1 = 0.8001	802.09	1377.6	–
288.15 K, x1 = 0.8998	808.24	1385.6	–
288.15 K, x1 = 1	814.51	1393.6	–
293.15 K, x1 = 0.1002	754.98	1304.9	1.57
293.15 K, x1 = 0.201	761.22	1312.4	1.67
293.15 K, x1 = 0.3	767.42	1319.9	1.76
293.15 K, x1 = 0.3998	773.59	1327.3	1.87
293.15 K, x1 = 0.5002	779.88	1335.1	1.99
293.15 K, x1 = 0.5999	786.08	1342.8	2.12
293.15 K, x1 = 0.6998	792.27	1350.4	2.26
293.15 K, x1 = 0.8001	798.57	1358.3	2.42
293.15 K, x1 = 0.8998	804.73	1366.2	2.6
293.15 K, x1 = 1	811	1374.2	2.8
298.15 K, x1 = 0.1002	751.36	1285.5	–
298.15 K, x1 = 0.201	757.61	1293.1	–
298.15 K, x1 = 0.3	763.84	1300.8	–
298.15 K, x1 = 0.3998	770.01	1308	–
298.15 K, x1 = 0.5002	776.32	1316	–
298.15 K, x1 = 0.5999	782.53	1323.6	–
298.15 K, x1 = 0.6998	788.73	1331.1	–
298.15 K, x1 = 0.8001	795.04	1339.3	–
298.15 K, x1 = 0.8998	801.21	1346.9	–
298.15 K, x1 = 1	807.49	1355.1	–
303.15 K, x1 = 0.1002	747.74	1266.3	1.33
303.15 K, x1 = 0.201	754.01	1273.9	1.41
303.15 K, x1 = 0.3	760.25	1281.8	1.48
303.15 K, x1 = 0.3998	766.42	1288.8	1.57
303.15 K, x1 = 0.5002	772.75	1297	1.66
303.15 K, x1 = 0.5999	778.98	1304.7	1.74
303.15 K, x1 = 0.6998	785.18	1312.1	1.85
303.15 K, x1 = 0.8001	791.51	1320.3	1.97
303.15 K, x1 = 0.8998	797.69	1327.9	2.11
303.15 K, x1 = 1	803.98	1336.1	2.25
313.15 K, x1 = 0.1002	740.48	1228.4	1.13
313.15 K, x1 = 0.201	746.79	1236.2	1.19
313.15 K, x1 = 0.3	753.05	1244.2	1.25
313.15 K, x1 = 0.3998	759.25	1251.2	1.32
313.15 K, x1 = 0.5002	765.6	1259.6	1.39
313.15 K, x1 = 0.5999	771.86	1267.3	1.47
313.15 K, x1 = 0.6998	778.09	1274.6	1.54
313.15 K, x1 = 0.8001	784.43	1283	1.63
313.15 K, x1 = 0.8998	790.64	1290.5	1.73
313.15 K, x1 = 1	796.95	1298.8	1.85
323.15 K, x1 = 0.1002	733.2	1191.3	0.976
323.15 K, x1 = 0.201	739.54	1199.2	1.02
323.15 K, x1 = 0.3	745.82	1207.3	1.08
323.15 K, x1 = 0.3998	752.06	1214.3	1.13
323.15 K, x1 = 0.5002	758.43	1222.8	1.19
323.15 K, x1 = 0.5999	764.71	1230.6	1.25
323.15 K, x1 = 0.6998	770.98	1238	1.32
323.15 K, x1 = 0.8001	777.34	1246.3	1.38
323.15 K, x1 = 0.8998	783.57	1253.9	1.45
323.15 K, x1 = 1	789.91	1262.2	1.55
333.15 K, x1 = 0.1002	725.89	1155.3	0.851
333.15 K, x1 = 0.201	732.26	1163.2	0.891
333.15 K, x1 = 0.3	738.56	1171.2	0.933
333.15 K, x1 = 0.3998	744.84	1178.5	0.977
333.15 K, x1 = 0.5002	751.23	1186.8	1.03
333.15 K, x1 = 0.5999	757.54	1194.6	1.08
333.15 K, x1 = 0.6998	763.84	1202.4	1.14
333.15 K, x1 = 0.8001	770.22	1210.5	1.18
333.15 K, x1 = 0.8998	776.49	1218.5	1.23
333.15 K, x1 = 1	782.85	1226.7	1.31

CCCCCC1CCCCC1 [pentylcyclohexane] + CCCCCCCCCCCC
Conditions	mass density [kg/m3]	speed of sound [m/s]	viscosity [mPa·s]
288.15 K, x1 = 0.1009	757.14	1321.1	–
288.15 K, x1 = 0.2001	761.98	1324.9	–
288.15 K, x1 = 0.3003	767.03	1329.1	–
288.15 K, x1 = 0.4009	772.26	1333.4	–
288.15 K, x1 = 0.5001	777.64	1338.1	–
288.15 K, x1 = 0.6	783.17	1343	–
288.15 K, x1 = 0.7003	789	1348.1	–
288.15 K, x1 = 0.8136	795.88	1354.4	–
288.15 K, x1 = 0.9082	801.77	1359.9	–
288.15 K, x1 = 1	807.78	1365.8	–
293.15 K, x1 = 0.1009	753.52	1301.6	1.5
293.15 K, x1 = 0.2001	758.36	1305.5	1.51
293.15 K, x1 = 0.3003	763.41	1309.6	1.52
293.15 K, x1 = 0.4009	768.64	1313.9	1.54
293.15 K, x1 = 0.5001	774.02	1318.6	1.55
293.15 K, x1 = 0.6	779.55	1323.4	1.57
293.15 K, x1 = 0.7003	785.37	1328.5	1.6
293.15 K, x1 = 0.8136	792.25	1334.7	1.62
293.15 K, x1 = 0.9082	798.13	1340.2	1.66
293.15 K, x1 = 1	804.13	1346	1.69
298.15 K, x1 = 0.1009	749.9	1282.5	–
298.15 K, x1 = 0.2001	754.73	1286.2	–
298.15 K, x1 = 0.3003	759.79	1290.3	–
298.15 K, x1 = 0.4009	765.01	1294.6	–
298.15 K, x1 = 0.5001	770.39	1299.2	–
298.15 K, x1 = 0.6	775.92	1304	–
298.15 K, x1 = 0.7003	781.74	1309.1	–
298.15 K, x1 = 0.8136	788.61	1315.2	–
298.15 K, x1 = 0.9082	794.48	1320.6	–
298.15 K, x1 = 1	800.48	1326.4	–
303.15 K, x1 = 0.1009	746.27	1263.2	1.28
303.15 K, x1 = 0.2001	751.1	1267.1	1.29
303.15 K, x1 = 0.3003	756.16	1271.2	1.3
303.15 K, x1 = 0.4009	761.38	1275.4	1.31
303.15 K, x1 = 0.5001	766.76	1280	1.32
303.15 K, x1 = 0.6	772.28	1284.8	1.34
303.15 K, x1 = 0.7003	778.1	1289.8	1.35
303.15 K, x1 = 0.8136	784.97	1295.8	1.38
303.15 K, x1 = 0.9082	790.84	1301.1	1.4
303.15 K, x1 = 1	796.82	1306.7	1.43
313.15 K, x1 = 0.1009	738.99	1225.5	1.08
313.15 K, x1 = 0.2001	743.83	1229.3	1.09
313.15 K, x1 = 0.3003	748.88	1233.4	1.1
313.15 K, x1 = 0.4009	754.1	1237.6	1.11
313.15 K, x1 = 0.5001	759.47	1242.1	1.12
313.15 K, x1 = 0.6	764.99	1246.8	1.14
313.15 K, x1 = 0.7003	770.8	1251.7	1.15
313.15 K, x1 = 0.8136	777.66	1257.6	1.17
313.15 K, x1 = 0.9082	783.52	1262.8	1.19
313.15 K, x1 = 1	789.49	1268.2	1.21
323.15 K, x1 = 0.1009	731.68	1188.3	0.941
323.15 K, x1 = 0.2001	736.51	1192.1	0.949
323.15 K, x1 = 0.3003	741.57	1196.2	0.957
323.15 K, x1 = 0.4009	746.79	1200.3	0.967
323.15 K, x1 = 0.5001	752.16	1204.8	0.976
323.15 K, x1 = 0.6	757.67	1209.6	0.988
323.15 K, x1 = 0.7003	763.48	1214.3	1
323.15 K, x1 = 0.8136	770.33	1220.1	1.02
323.15 K, x1 = 0.9082	776.17	1225.1	1.03
323.15 K, x1 = 1	782.14	1230.5	1.05
333.15 K, x1 = 0.1009	724.33	1151.9	0.819
333.15 K, x1 = 0.2001	729.17	1155.8	0.825
333.15 K, x1 = 0.3003	734.22	1159.8	0.833
333.15 K, x1 = 0.4009	739.44	1163.9	0.841
333.15 K, x1 = 0.5001	744.8	1168.3	0.851
333.15 K, x1 = 0.6	750.31	1172.9	0.861
333.15 K, x1 = 0.7003	756.11	1177.6	0.871
333.15 K, x1 = 0.8136	762.96	1183.4	0.887
333.15 K, x1 = 0.9082	768.8	1188.4	0.897
333.15 K, x1 = 1	774.75	1193.5	0.914
